In patent US20220347175A1, “PYRIDAZINONE DERIVATIVE” (Sumitomo Dainippon Pharma Co., Ltd., priority 2018, published 2022):

Experiments:
[1] = biological target: T1, human Nav1.1 (Homo sapiens, UniProt P35498); experiment: Amplification of Nav1.1-derived voltage-dependent sodium current (Nav1.1 current), cell line stably expressing human Nav1.1, automated patch clamp; assay type: cell-based
T1 construct: host or cells: HEK293
Summary of the method: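 Amplification rate (%) is 100 × post-compound/pre-compound Nav1.1 peak current or AUC, minus 100. Ramp-evoked sodium currents were recorded by automated patch clamp in a human Nav1.1 HEK293 stable line, restricted to cells exceeding 500 pA, with compounds added in extracellular solution containing 1% DMSO.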

[2] = biological target: T2, human Nav1.5 (Homo sapiens, UniProt Q14524); experiment: Amplification of Nav1.5-derived voltage-dependent sodium current (Nav1.5 current), cell line stably expressing human Nav1.5, automated patch clamp; assay type: cell-based
T2 construct: expressed in transfected cells; host or cells: CHO-K1 (T-REx System, ThermoFisher Scientific)
T2 sequence (Q14524 1-2015 isoform Q14524-2): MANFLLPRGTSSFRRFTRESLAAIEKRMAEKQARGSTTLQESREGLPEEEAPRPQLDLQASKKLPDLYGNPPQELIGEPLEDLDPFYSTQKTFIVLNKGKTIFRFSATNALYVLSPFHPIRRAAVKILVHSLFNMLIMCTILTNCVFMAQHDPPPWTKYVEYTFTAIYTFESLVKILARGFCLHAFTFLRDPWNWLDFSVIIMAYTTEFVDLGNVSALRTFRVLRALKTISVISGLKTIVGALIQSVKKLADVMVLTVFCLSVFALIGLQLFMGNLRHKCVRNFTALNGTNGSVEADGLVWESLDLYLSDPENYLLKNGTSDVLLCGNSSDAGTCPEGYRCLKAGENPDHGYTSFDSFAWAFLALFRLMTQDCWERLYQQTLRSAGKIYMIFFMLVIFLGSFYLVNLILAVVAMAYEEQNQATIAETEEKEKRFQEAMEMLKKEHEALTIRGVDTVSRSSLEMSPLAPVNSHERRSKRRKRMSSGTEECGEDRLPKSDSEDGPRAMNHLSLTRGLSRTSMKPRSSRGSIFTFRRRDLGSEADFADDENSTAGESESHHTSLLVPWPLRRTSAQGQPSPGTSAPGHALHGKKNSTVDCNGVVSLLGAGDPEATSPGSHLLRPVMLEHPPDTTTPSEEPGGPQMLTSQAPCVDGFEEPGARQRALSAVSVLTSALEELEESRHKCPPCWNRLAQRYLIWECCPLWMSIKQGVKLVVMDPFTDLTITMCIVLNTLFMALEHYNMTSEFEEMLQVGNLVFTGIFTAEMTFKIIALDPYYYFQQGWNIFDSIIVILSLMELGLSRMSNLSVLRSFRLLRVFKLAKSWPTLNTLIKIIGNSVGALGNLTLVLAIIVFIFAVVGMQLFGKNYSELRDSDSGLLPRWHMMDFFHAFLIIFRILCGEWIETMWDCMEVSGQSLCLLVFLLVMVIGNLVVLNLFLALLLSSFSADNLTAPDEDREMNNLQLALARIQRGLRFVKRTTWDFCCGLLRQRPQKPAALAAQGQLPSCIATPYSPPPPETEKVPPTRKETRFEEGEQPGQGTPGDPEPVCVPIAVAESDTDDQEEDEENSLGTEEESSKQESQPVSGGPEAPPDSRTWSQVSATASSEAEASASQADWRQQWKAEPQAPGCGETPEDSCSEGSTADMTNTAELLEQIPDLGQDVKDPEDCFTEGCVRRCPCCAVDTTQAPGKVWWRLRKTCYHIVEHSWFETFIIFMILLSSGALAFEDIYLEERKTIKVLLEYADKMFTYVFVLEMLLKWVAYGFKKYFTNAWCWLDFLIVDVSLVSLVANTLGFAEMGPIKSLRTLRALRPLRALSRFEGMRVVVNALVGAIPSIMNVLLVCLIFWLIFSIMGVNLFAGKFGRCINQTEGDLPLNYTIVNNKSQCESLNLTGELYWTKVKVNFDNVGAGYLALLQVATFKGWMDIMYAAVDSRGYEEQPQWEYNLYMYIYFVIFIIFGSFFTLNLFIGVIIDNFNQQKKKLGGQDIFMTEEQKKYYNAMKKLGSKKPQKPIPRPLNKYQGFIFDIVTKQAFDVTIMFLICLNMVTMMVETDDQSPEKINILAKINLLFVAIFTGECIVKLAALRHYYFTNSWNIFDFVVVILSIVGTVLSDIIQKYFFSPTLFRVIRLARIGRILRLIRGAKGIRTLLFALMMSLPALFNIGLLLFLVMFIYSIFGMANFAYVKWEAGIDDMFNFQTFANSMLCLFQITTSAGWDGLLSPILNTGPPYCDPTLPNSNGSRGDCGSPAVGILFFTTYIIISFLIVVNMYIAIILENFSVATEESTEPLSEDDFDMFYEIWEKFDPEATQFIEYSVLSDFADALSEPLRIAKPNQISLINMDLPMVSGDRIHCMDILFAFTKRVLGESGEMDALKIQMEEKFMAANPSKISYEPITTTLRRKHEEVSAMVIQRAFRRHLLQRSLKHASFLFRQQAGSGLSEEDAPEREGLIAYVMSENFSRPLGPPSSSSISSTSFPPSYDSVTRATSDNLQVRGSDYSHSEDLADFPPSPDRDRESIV

[3] = compound 1 μmol/L, HEK293 stably expressing human Nav1.1
[4] = compound 1 μmol/L, CHO-K1 stably expressing human Nav1.5
[5] = 10 μmol/L compound, change of the area under the curve of Nav1.1 current (Test Result 1)
[6] = 10 μmol/L compound, change of the area under the curve of Nav1.5 current (Test Result 1)
[7] = 10 μmol/L compound, change of the area under the curve of Nav1.1 current (Test Result 1), read-out: Nav1.1 current amplification rate (%)
[8] = 10 μmol/L compound, change of the area under the curve of Nav1.5 current (Test Result 1), read-out: Nav1.5 current amplification rate (%)
[9] = compound 3 μmol/L, HEK293 stably expressing human Nav1.1
[10] = compound 3 μmol/L, CHO-K1 stably expressing human Nav1.5

SMILES	Nav1.1 current amplification rate (%) [1, 5]	Nav1.5 current amplification rate (%) [2, 6]	other results
CC1CC=C(c2ccc(=O)n(CC(=O)Nc3ccc4nccnc4c3)n2)CC1 (racemic) [Example 354]	–	–	Nav1.1 current amplification rate (%) [1, 3]: 123%; Nav1.5 current amplification rate (%) [2, 4]: 27%
CC1(C)CC=C(c2ccc(=O)n(CC(=O)N3CCc4c(N5CCOCC5)cccc43)n2)C1 [Example 475]	633%	70%	–
Cc1c(N2CCC3(CCCC3)C2)nn(CC(=O)Nc2ccn3ccnc3c2)c(=O)c1C [Example 166]	–	–	activation at 10 µM [1, 7]: 150%; activation at 10 µM [2, 8]: 45%
O=C(Cn1nc(N2CCCC3(CCC3)C2)ccc1=O)Nc1ccc2ocnc2c1 [Example 130]	–	–	activation at 10 µM [1, 7]: 181%; activation at 10 µM [2, 8]: 3%
CC1CCN(c2ccc(=O)n(CC(=O)Nc3ccc4ccoc4c3)n2)CC1 [Example 163]	–	–	activation at 10 µM [1, 7]: 118%; activation at 10 µM [2, 8]: 1%
O=C(Cn1nc(C2=CCCCC2)ccc1=O)N1CCc2c(N3CCOCC3)cccc21 [Example 480]	–	–	Nav1.1 current amplification rate (%) [1, 3]: 110%; Nav1.5 current amplification rate (%) [2, 4]: 7%
COc1cc(C2=CCC(C)CC2)nn(CC(=O)N2CCN(c3cncc(F)c3)CC2)c1=O (racemic) [Example 488]	376%	174%	–
CC1CC=C(c2ccc(=O)n(CC(=O)N3CCN(c4cccnc4)CC3)n2)CC1 (racemic) [Example 395]	343%	15%	–
CC1CCN(c2ccc(=O)n(CC(=O)Nc3ccc(C(F)(F)F)nc3)n2)CC1 [Example 59]	180%	56%	–
COc1cc(N2CCN(C(=O)Cn3nc(C4=CCC(C)CC4)ccc3=O)CC2)ccc1F (centres unmarked) [Example 413]	–	–	Nav1.1 current amplification rate (%) [1, 9]: 27%; Nav1.5 current amplification rate (%) [2, 10]: 1%
O=C(Cn1nc(N2CCC3(CCC3)CC2)ccc1=O)Nc1cccc(-n2ccnc2)c1 [Example 125]	–	–	activation at 10 µM [1, 7]: 220%; activation at 10 µM [2, 8]: 34%
O=C(Cn1nc(C2=CCC3(CC2)CC3)ccc1=O)Nc1ccn2ncnc2c1 [Example 512, 2-[6-oxo-3-(spiro[2.5]oct-5-en-6-yl)pyridazin-1(6H)-yl]-N-([1,2,4]triazolo[1,5-a]pyridin-7-yl)acetamide]	–	–	activation at 1 µM ([1]; compound 1 μmol/L, HEK293 stably expressing human Nav1.1, read-out: Nav1.1 current amplification rate (%)): 103%; activation at 1 µM ([2]; compound 1 μmol/L, CHO-K1 stably expressing human Nav1.5, read-out: Nav1.5 current amplification rate (%)): 34%
CC1CCN(c2ccc(=O)n(CC(=O)Nc3ccnc(C#N)c3)n2)CC1 [Example 53]	161%	11%	–
O=C(Cn1nc(N2CCC3C(C2)C3(F)F)ccc1=O)Nc1ccc2ocnc2c1 (centres unmarked) [Example 161]	–	–	activation at 10 µM [1, 7]: 21%; activation at 10 µM [2, 8]: -1%
CC1CC=C(c2ccc(=O)n(CC(=O)N3CCN(c4nccs4)CC3)n2)CC1 (centres unmarked) [Example 414]	40%	−2%	–
COc1cc(C2=CCC(C(F)(F)F)CC2)nn(CC(=O)Nc2ccc3ocnc3c2)c1=O (centres unmarked) [Example 447]	148%	6%	–
CC1CC=C(c2ccc(=O)n(CC(=O)N3CCN(c4cncc(F)c4)CC3)n2)CC1 (racemic) [Example 263]	342%	32%	–
CC1(C)CC=C(c2ccc(=O)n(CC(=O)N3CCN(c4ccccn4)CC3)n2)CC1 [Example 439]	87%	−4%	–
O=C(Cn1nc(N2CCCC3(CCC3)C2)ccc1=O)Nc1ccc2scnc2c1 [Example 133]	–	–	activation at 10 µM [1, 7]: 285%; activation at 10 µM [2, 8]: 12%
CC1CC=C(c2ccc(=O)n(CC(=O)Nc3ccn4c(C5CC5)cnc4c3)n2)CC1 (racemic) [Example 335]	–	–	Nav1.1 current amplification rate (%) [1, 9]: 187%; Nav1.5 current amplification rate (%) [2, 10]: 65%
CC1CCN(c2ccc(=O)n(CC(=O)Nc3cncc(C(F)(F)F)c3)n2)CC1 [Example 61]	77%	8%	–
Cc1noc2cc(NC(=O)Cn3nc(N4CCC(C)CC4)ccc3=O)ccc12 [Example 84]	315%	123%	–
CC1CCN(c2ccc(=O)n(CC(=O)Nc3ccc4c(c3)ncn4C)n2)CC1 [Example 98]	15%	4%	–
CC1CC=C(c2ccc(=O)n(CC(=O)N3CC=C(c4nccc5occc45)CC3)n2)CC1 (centres unmarked) [Example 404]	42%	6%	–
CC1CC=C(c2ccc(=O)n(CC(=O)Nc3ccc4oc(CN5CCOCC5)nc4c3)n2)CC1 (racemic) [Example 331]	–	–	Nav1.1 current amplification rate (%) [1, 9]: 64%; Nav1.5 current amplification rate (%) [2, 10]: 9%
